Laboratory results: ChEMBL document CHEMBL1201862, “PubChem BioAssay data set” (2004)
Activity calls are given as the source filed them.

Columns and labels:
Chaperone protein dnaK = Chaperone protein dnaK (Escherichia coli, UniProt C3TRK2); test: E. coli DnaK binders, calorimetric Kd – biophysical, isothermal titration calorimetry, beta-domain, full-length DnaK, orthogonal assay for DnaK modulator project, SAR follow-up (AID 1495)
Cytochrome P450 2C9 = Cytochrome P450 2C9 (Homo sapiens, UniProt P11712); settings: Potency
[1] = biological target: T1, Alkaline phosphatase, tissue-nonspecific isozyme (Homo sapiens, UniProt P05186)
T1 sequence (P05186 whole entry): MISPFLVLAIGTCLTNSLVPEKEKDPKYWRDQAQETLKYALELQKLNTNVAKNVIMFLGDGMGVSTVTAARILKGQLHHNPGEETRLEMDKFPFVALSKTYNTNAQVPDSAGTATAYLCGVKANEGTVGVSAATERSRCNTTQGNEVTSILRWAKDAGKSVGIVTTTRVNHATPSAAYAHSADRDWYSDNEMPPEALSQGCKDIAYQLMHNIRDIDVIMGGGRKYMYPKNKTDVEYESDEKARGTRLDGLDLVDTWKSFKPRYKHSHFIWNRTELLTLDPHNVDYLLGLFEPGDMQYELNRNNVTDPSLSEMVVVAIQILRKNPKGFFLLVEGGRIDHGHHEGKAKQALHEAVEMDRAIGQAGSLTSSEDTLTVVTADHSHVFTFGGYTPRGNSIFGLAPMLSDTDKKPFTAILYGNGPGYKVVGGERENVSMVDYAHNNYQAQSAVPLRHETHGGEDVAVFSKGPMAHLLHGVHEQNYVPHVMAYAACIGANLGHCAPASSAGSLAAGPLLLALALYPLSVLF

[2] = HPDE-C7 pancreatic duct cell viability loss – fluorescence, HTS (AID 430); assay type: functional, cell-based; settings: Homo sapiens
[3] = viability loss of HPDE-C7K cells – cell-based, fluorescence, HTS, primary screen (AID 431); assay type: functional; settings: Homo sapiens
[4] = Luminescence Cell-Based Dose Retest to Confirm Inhibitors of Cancer Stem Cells. [Related pubchem assays (depositor defined):AID2717, AID2721]; assay type: functional; settings: Homo sapiens
[5] = biological target: T2, Methionyl-tRNA synthetase, putative (Trypanosoma brucei brucei, UniProt Q38C91); assay type: functional, Trypanosoma brucei brucei strain 927/4 GUTat10.1
T2 sequence (Q38C91 whole entry): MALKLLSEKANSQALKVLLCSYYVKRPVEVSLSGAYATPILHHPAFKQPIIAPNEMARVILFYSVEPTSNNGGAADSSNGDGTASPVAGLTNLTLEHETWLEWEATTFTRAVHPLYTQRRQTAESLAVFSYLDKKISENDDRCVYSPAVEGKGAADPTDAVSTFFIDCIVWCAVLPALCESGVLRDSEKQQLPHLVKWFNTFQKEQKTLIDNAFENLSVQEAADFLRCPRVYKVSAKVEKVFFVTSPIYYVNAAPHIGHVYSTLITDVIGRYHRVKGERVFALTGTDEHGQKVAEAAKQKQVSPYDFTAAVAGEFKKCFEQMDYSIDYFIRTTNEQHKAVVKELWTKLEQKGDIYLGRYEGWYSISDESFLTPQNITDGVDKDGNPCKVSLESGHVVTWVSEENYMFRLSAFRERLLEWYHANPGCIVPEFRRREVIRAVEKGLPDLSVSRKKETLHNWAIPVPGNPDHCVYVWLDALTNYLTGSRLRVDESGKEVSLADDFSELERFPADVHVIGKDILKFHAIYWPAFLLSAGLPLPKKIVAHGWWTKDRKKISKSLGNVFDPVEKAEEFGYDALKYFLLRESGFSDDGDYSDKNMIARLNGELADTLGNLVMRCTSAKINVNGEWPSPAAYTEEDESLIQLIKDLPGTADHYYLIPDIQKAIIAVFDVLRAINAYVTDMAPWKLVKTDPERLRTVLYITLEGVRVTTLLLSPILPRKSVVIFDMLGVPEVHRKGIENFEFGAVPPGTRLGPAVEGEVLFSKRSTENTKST

[6] = Counterscreen for inhibitors of Trypanosoma brucei methionyl tRNA synthetase (MetRS): Luminescence-based cell-based high throughput dose response assay to identify compounds that are cytotoxic to Jurkat human T lymphocyte cells.; assay type: functional; settings: jurkat
[7] = biological target: T2, Methionyl-tRNA synthetase, putative; assay type: functional, Trypanosoma brucei brucei strain 927/4 GUTat10.1; remark: listed apart in the source
BJ [8] = test: BJ-TERT fibroblast viability loss – cell-based, RAS-independent, luminescence, dose response (AID 1933); assay type: functional; settings: Homo sapiens
[9] = biological target: T3, Eukaryotic translation initiation factor 2-alpha kinase 3 (Homo sapiens, UniProt Q9NZJ5); test: Dose response cell-based high-throughput screening assay to measure PERK inhibition. [Related pubchem assays: 1416 ]; assay type: functional
T3 sequence (Q9NZJ5 whole entry): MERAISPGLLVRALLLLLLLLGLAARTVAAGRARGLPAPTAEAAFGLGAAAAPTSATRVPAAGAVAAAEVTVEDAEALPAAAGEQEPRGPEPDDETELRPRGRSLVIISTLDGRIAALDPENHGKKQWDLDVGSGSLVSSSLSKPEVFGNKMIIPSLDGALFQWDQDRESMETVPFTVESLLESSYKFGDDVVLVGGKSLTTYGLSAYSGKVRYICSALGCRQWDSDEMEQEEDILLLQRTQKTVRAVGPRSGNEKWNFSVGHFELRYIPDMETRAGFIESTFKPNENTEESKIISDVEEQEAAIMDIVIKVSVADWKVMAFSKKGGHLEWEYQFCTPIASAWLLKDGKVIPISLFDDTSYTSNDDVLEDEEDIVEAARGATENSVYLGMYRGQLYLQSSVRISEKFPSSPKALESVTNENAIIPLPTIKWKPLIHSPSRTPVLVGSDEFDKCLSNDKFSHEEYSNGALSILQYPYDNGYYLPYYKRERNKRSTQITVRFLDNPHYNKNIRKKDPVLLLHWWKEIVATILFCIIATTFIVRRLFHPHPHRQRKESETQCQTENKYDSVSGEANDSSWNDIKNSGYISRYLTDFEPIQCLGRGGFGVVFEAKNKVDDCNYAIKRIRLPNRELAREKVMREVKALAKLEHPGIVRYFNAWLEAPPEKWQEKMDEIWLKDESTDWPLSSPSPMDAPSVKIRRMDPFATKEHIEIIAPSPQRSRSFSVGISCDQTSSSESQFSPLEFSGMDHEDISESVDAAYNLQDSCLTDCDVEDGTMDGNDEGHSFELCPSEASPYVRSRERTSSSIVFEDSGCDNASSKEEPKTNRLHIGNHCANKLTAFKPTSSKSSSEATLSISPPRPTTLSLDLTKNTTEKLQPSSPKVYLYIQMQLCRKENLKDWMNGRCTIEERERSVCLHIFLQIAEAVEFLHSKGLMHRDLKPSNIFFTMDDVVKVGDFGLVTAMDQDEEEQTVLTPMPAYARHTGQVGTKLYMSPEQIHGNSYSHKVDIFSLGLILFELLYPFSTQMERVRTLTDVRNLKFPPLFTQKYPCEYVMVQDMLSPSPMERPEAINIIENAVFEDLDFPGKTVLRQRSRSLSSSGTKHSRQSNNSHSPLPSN

BJ [10] = test: cells; assay type: functional, cell-based; settings: Homo sapiens
[11] = biological target: T3, Eukaryotic translation initiation factor 2-alpha kinase 3; test: Counterscreen assay for PERK inhibitors: Dose response cell-based high throughput screening assay to measure inhibition of PERK at 6 hours. [Related pubchem assays: 1522, 1416 ]; assay type: functional
BJ [12] = test: BJ-TERT-LT-ST fibroblast viability loss – cell-based, RAS-independent, luminescence, dose response (AID 1935); assay type: functional; settings: Homo sapiens;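 further: BJ fibroblasts immortalized with TERT plus LT and ST oncogenes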
[13] = DRD fibroblast viability loss – cell-based, non-viral oncogenic, luminescence, dose response (AID 1934); assay type: functional; settings: Homo sapiens
[14] = biological target: Cyclin-dependent kinase 5/CDK5 activator 1 (Homo sapiens, UniProt Q00535); test: blockade of human CDK5 activity – biochemical, cherry-picked samples, set 2, dose response (AID 504545)
Galanin receptor type 3 = biological target: T4, Galanin receptor type 3 (Homo sapiens, UniProt O60755); test: Fluorescence-based cell-based primary high throughput dose response assay to identify antagonists of the Galanin Receptor 3 (GalR3).; assay type: functional
T4 sequence (O60755 whole entry): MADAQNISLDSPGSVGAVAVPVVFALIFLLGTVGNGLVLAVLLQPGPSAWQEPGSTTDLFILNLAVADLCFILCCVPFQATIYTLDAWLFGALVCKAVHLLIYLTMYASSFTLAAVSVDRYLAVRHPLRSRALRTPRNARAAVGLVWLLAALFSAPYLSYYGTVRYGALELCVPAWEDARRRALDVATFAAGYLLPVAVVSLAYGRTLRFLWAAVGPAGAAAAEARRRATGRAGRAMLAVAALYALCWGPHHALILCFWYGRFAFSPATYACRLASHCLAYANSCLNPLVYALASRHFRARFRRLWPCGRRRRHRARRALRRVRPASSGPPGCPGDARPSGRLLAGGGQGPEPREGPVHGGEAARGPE

cells = assay type: functional, cell-based; settings: HEK-CNG

Sequence of Chaperone protein dnaK (C3TRK2 whole entry): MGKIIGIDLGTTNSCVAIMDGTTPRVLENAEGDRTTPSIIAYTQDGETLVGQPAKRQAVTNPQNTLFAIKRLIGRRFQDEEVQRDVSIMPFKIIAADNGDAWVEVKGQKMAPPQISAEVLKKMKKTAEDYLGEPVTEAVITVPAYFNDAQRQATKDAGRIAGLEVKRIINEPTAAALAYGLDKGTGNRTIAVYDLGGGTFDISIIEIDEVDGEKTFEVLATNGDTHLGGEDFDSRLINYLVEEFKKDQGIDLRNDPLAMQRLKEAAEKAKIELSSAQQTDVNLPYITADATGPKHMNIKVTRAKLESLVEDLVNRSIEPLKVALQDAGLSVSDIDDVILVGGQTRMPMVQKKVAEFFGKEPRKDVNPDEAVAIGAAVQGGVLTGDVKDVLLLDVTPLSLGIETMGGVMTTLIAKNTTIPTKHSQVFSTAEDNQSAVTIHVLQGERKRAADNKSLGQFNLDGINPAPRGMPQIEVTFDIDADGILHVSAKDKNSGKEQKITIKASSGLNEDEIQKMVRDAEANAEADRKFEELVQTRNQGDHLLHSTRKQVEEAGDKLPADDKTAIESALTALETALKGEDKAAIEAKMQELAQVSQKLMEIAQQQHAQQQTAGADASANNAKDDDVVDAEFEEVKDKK
Sequence of Cytochrome P450 2C9 (P11712 whole entry): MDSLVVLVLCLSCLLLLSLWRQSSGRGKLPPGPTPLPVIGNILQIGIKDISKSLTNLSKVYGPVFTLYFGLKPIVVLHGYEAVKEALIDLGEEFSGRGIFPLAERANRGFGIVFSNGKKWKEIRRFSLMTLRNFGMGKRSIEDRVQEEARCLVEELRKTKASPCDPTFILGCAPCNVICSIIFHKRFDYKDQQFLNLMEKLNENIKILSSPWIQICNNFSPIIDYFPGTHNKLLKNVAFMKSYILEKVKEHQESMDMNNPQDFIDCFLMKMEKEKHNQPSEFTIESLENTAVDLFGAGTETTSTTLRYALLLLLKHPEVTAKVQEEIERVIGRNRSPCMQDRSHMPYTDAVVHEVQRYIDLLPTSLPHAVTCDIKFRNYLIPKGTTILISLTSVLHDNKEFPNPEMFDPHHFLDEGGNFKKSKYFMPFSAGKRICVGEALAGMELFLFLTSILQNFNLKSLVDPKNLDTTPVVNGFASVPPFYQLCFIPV
Sequence of Cyclin-dependent kinase 5/CDK5 activator 1 (Q00535 whole entry): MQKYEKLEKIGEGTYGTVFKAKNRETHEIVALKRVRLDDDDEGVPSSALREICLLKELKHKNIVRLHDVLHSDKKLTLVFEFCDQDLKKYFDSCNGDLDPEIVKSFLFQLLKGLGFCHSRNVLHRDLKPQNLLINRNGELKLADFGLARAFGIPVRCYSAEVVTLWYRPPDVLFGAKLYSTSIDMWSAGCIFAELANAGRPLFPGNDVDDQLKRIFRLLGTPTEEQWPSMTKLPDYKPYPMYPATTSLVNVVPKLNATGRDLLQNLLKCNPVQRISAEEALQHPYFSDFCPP
Sequence of Cyclin-dependent kinase 5/CDK5 activator 1 (Q15078 whole entry, further chain): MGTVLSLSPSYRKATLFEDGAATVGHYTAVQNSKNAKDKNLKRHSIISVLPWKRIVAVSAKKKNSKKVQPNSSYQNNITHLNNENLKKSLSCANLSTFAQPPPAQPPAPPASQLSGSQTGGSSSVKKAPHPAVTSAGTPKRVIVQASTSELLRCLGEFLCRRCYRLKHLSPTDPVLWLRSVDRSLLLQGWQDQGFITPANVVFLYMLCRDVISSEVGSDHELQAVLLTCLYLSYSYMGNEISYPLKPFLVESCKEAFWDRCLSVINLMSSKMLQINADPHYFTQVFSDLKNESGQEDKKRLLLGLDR

## O=C(NCc1c(Cl)cccc1Cl)c1cccs1
Chaperone protein dnaK
  Kd: 1.5 µM (active)

## CC(C)C[C@@H](CC(=O)N[C@@H](CCC(=O)O)CC(=O)O)NC(=O)[C@@H]1CCCC[C@H]1NC(=O)C[C@H](CCCN)NC(=O)C[C@H](CO)NC(=O)[C@@H]1CNCC[C@H]1N
Cytochrome P450 2C9
  AC50: 31.6 µM (inconclusive)

## Clc1ccc(COC(Cn2ccnc2)c2ccc(Cl)cc2Cl)c(Cl)c1 (stereo not drawn) [MICONAZOLE NITRATE]
[1]
  EC50: 70.6 µM (not active)
[2]
  EC50: 8.19 µM (active)
[3]
  EC50: 7.45 µM (active)
[4]
  AC50: 6.36 µM (active)
[5]
  IC50: 11 µM (inactive)
[6]
  IC50: 28.1 µM (inactive)
[7]
  IC50: 13.2 µM (inactive)

## NC(=O)c1cn(C2OC(CO)C(O)C2O)c2ncnc(N)c12 (stereo not drawn)
BJ [8]
  EC50: 0.874 µM (active)
[9]
  EC50: > 55.7 µM (not active)
BJ [10]
  EC50: 1.27 µM (inconclusive)
[11]
  EC50: > 55.7 µM (not active)
BJ [12]
  EC50: 1.19 µM (inconclusive)
[13]
  EC50: 1.09 µM (active)
[14]
  AC50: 14.6 µM (active)
Galanin receptor type 3
  IC50: 1.31 µM (active)
cells
  EC50: > 29.9 µM (inactive)
